# Key:
# [1] = molecular target: T1, proteasome catalytic subunit β5 (Homo sapiens, UniProt P20618+P28074); experiment: Immunoblot mobility shift of covalently modified β5 in tumor lysates; set-up: species or system human (H460 xenograft in mice); conditions: positive control: tumor lysates incubated with 50 nM CFZ for 2 h in vitro
# T1 construct: tumor tissue lysates (10 μg of total protein) were resolved using 12.5% SDS-PAGE; from tissue; host or cells: excised H460 xenograft tumour tissue from NOD/SCID mice
# Procedure: Briefly, tumor tissue lysates (10 μg of total protein) were resolved using 12.5% SDS-PAGE and transferred onto a PVDF membrane (Bio-Rad Laboratories). Membranes were blocked in 5% milk in Tris-buffered saline containing 0.05% Tween-20 (TBST) and probed with the following antibodies; for β5 (dilution 1:1000, Abcam) and β-actin (dilution 1:1000, Cell Signaling). Membranes were washed with TBST and probed with the corresponding secondary antibodies conjugated with horseradish peroxidase. Bound antibodies were visualized using an enhanced chemiluminescence substrate (Thermo Fisher Scientific).
# [2] = set-up: method as in 2 sources, one per row (each row's own in cited_ref): ref 14 = [14]; PMID 23386784; doi:10.2147/BTT.S24580; 14 Nooka A , Gleason C , Casbourne D , Lonial S . Relapsed and refractory lymphoid neoplasms and multiple myeloma with a focus on carfilzomib . Biologics 2013; 7 : 13 – 32 . 10.2147/BTT.S24580 233867 ||| ref 6 = [6]; PMID 21752943; doi:10.1124/dmd.111.039164; 6 Yang J , Wang Z , Fang Y , Jiang J , Zhao F , Wong H , et al Pharmacokinetics, pharmacodynamics, metabolism, distribution, and excretion of carfilzomib in rats . Drug Metab Dispos . 2011; 39 : 1873; conditions: cited from earlier work
substance,measurement,setting,value
Carfilzomib [CFZ],β5 band mobility compared with negative control (DMSO),[1],showed a mobility shift
same,solubility in aqueous media,"[2]; background statement, no reference given",practically insoluble
same,share of CFZ eliminated from systemic circulation within 30 min,"[2]; following intravenous injection, peptide backbone cleavage and epoxide hydrolysis",> 95%
same,maximum tolerated dose,[2]; mice,5 mg/kg

# Source: publication PMC5342227, “Polymer micelle formulation for the proteasome inhibitor drug carfilzomib: Anticancer efficacy and pharmacokinetic studies in mice” (PLoS ONE, 2017)
